Structures are written as SMILES.

In one assay the target is ALK (Homo sapiens, UniProt Q9UM73). Put plainly: ALK enzyme assay (HTRF). The conditions noted are these: 0.25 nM ALK, 15.0 μM ATP, values given as pIC50 category. Format: biochemical. In outline:
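Final compound range 0.00017 to 10 μM (twelve 1:3 dilutions). Kinase reaction with ATP and biotinylated synthetic peptide runs 120 min at 20° C, stopped with EDTA; phosphotyrosine detected by HTRF after 60 min. Inhibition referenced to DMSO (1%) and EDTA (0.1 M) controls, curve-fitted.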
(Time-resolved FRET reads energy transfer from a long-lived donor to a nearby acceptor.)

For the next assay, the system named is NCI-H929. As to the kind of experiment: Inhibition of cell proliferation (CellTiter-Glo or InCell analyzer), NCI-H929. The format is cell-based. As to conditions: Homo sapiens, 72 h / 3 days, values given as IC50 category. In short, it runs like this: In one
The subject of a further assay is Colo205. Put plainly: Inhibition of cell proliferation (CellTiter-Glo or InCell analyzer), Colo205. The format is cell-based. The conditions noted are these: Homo sapiens, COLO 205, 72 h / 3 days, values given as IC50 category. In short, it runs like this:
In one

Assay [1] concerns the target T1, NIH-3T3 cells overexpressing human IGF-1R (Homo sapiens, UniProt P08069).
T1 construct: expressed in transfected cells; host or cells: NIH-3T3 (mouse fibroblasts)
Put plainly: IGF-1R cellular autophosphorylation (DELFIA). The format is cell-based. In short, it runs like this: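 Receptor autophosphorylation measured by DELFIA, capturing IGF-1R or IRβ and detecting with europium anti-pTyr, reported as percent of IGF-1- or insulin-stimulated signal. Compounds (30 uM to 1.5 nM) added 2 h before ligand, then 15 min stimulation (IGF-1 30 ng/ml or insulin 3 ug/ml).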

T1 sequence (P08069 31-1367): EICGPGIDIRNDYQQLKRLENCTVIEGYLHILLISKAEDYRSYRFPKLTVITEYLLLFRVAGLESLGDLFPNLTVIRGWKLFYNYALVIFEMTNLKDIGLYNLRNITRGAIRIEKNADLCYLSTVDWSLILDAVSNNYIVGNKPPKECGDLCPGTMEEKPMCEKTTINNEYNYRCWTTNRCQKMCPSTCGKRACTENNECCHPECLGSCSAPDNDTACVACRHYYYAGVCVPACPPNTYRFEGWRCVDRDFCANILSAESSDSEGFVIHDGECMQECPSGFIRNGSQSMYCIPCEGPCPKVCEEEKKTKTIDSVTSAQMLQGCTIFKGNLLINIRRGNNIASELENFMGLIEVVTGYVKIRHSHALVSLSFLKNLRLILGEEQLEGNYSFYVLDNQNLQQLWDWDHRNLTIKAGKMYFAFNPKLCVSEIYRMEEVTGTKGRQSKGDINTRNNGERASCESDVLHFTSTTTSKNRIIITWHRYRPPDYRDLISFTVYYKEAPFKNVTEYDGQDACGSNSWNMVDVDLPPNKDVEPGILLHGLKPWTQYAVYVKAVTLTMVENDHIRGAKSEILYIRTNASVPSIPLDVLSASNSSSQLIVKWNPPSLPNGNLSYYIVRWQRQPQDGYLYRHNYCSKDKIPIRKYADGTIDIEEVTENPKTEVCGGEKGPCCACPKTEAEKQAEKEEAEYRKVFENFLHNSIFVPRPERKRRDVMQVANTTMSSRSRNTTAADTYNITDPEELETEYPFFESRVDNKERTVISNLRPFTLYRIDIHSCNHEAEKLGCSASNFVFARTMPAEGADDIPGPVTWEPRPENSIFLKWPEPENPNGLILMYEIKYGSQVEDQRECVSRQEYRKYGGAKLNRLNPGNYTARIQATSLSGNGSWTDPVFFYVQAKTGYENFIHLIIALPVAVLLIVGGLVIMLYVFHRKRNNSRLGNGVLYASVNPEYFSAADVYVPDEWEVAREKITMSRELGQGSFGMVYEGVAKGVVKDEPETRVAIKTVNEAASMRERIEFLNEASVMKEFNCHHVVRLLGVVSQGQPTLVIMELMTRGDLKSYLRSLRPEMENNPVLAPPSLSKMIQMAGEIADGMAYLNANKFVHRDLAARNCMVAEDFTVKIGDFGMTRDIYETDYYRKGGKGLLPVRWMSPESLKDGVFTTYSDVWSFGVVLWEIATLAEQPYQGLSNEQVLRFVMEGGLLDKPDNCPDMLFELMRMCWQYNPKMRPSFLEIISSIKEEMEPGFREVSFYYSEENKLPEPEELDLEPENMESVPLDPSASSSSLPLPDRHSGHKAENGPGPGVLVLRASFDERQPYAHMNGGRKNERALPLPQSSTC
Chain of ALK (Q9UM73 19-1620): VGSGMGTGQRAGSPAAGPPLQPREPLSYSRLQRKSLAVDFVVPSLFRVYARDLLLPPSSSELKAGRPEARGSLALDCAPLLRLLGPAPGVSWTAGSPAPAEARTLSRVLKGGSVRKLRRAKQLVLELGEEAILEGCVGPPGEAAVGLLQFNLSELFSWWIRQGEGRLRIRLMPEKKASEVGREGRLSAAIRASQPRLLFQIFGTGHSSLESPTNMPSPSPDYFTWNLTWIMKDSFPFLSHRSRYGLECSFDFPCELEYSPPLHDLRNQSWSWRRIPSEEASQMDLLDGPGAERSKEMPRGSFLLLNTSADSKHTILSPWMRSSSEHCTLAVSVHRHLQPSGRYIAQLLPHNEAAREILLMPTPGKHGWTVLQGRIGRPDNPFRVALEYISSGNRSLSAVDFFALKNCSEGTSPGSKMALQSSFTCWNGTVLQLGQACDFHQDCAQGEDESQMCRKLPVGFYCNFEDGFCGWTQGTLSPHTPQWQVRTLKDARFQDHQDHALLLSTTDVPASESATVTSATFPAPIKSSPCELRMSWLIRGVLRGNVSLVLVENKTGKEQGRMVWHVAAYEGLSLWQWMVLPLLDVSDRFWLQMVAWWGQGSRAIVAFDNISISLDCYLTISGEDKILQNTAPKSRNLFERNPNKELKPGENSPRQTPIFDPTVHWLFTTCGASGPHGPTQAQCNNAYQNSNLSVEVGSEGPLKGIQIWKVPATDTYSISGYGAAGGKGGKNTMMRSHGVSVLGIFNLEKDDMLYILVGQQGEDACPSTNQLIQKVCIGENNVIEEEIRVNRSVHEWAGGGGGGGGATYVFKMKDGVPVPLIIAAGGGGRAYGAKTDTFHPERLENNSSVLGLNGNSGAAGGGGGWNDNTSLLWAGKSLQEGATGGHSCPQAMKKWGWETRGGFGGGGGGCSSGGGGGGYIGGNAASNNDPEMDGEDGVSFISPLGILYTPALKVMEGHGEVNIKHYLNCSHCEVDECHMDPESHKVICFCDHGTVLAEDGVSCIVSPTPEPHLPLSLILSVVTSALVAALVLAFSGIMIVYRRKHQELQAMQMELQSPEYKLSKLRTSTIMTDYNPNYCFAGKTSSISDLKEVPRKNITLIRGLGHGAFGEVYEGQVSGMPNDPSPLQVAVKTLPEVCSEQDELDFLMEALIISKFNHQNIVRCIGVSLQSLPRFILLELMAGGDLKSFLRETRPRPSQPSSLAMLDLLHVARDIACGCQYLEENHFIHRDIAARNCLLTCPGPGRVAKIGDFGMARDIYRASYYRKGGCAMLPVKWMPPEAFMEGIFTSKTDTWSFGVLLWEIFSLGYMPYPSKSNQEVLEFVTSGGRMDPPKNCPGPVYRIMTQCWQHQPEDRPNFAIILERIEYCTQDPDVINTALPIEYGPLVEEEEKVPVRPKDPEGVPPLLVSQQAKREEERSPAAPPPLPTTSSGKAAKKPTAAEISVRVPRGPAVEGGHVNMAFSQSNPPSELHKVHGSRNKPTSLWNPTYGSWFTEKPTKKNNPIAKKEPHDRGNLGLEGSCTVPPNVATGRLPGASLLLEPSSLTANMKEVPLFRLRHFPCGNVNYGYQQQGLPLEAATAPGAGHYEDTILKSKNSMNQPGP

As usually defined, the IC50 is the midpoint of a concentration-inhibition curve. A lower IC50 goes with greater potency in that assay. For `COc1cc2c(cc1Nc1nc(Nc3cccc4c3C(=O)NC4)c3cc[nH]c3n1)N(C(=O)CN(C)C)CC2` [Example 200, 7-[(2-{[1-(N,N-dimethylglycyl)-5-(methyloxy)-2,3-dihydro-1H-indol-6-yl]amino}-1H-pyrrolo[2,3-d]pyrimidin-4-yl)amino]-2,3-dihydro-1H-isoindol-1-one], the IC50 against ALK is 1.26 to 3.98 nM; with NCI-H929, < 250 nM; in the assay on Colo205, < 250 nM; in assay [1] it was < 100 nM.
With `CNC(=O)c1c(F)cccc1Nc1nc(Nc2cc3c(cc2OC)CCCN3C(=O)[C@@H]2CCCN2C)nc2[nH]ccc12` [Example 202, 2-fluoro-N-methyl-6-[(2-{[6-(methyloxy)-1-(1-methyl-L-prolyl)-1,2,3,4-tetrahydro-7-quinolinyl]amino}-1H-pyrrolo[2,3-d]pyrimidin-4-yl)amino]benzamide], the IC50 was 5.01 to 200 nM on ALK, < 250 nM with NCI-H929, 250 to 1000 nM in the assay with Colo205 and 100 to 500 nM in assay [1].
For `COc1cc(OCCN2CCN(C)CC2)ccc1Nc1nc(Nc2cccc(F)c2C(N)=O)c2cc[nH]c2n1` [Example 203, 2-fluoro-6-({2-[(2-(methyloxy)-4-{[2-(4-methyl-1-piperazinyl)ethyl]oxy}phenyl)amino]-1H-pyrrolo[2,3-d]pyrimidin-4-yl}amino)benzamide], the IC50 at ALK is 0.251 to 1 nM; in the assay with NCI-H929, < 250 nM; with Colo205, 250 to 1000 nM; in assay [1], 100 to 500 nM.
For the molecule `COc1cc(N2CCN(S(C)(=O)=O)CC2)ccc1Nc1nc(Nc2cccc(F)c2C(N)=O)c2cc[nH]c2n1` [Example 204, 2-fluoro-6-{[2-({2-(methyloxy)-4-[4-(methylsulfonyl)-1-piperazinyl]phenyl}amino)-1H-pyrrolo[2,3-d]pyrimidin-4-yl]amino}benzamide], the IC50 at ALK is 0.251 to 1 nM; in the assay on NCI-H929, < 250 nM; with Colo205, < 250 nM; in assay [1] it was > 500 nM.
Consider `COc1cc(OCCCN2CCN(C)CC2)ccc1Nc1nc(Nc2cccc(F)c2C(N)=O)c2cc[nH]c2n1` [Example 205, 2-fluoro-6-({2-[(2-(methyloxy)-4-{[3-(4-methyl-1-piperazinyl)propyl]oxy}phenyl)amino]-1H-pyrrolo[2,3-d]pyrimidin-4-yl}amino)benzamide], for which the IC50 against ALK is 1.26 to 3.98 nM; with NCI-H929 it was < 250 nM; in the assay on Colo205, < 250 nM; in assay [1] it was 100 to 500 nM.
On to `COc1cc(N2CCCN(S(C)(=O)=O)CC2)ccc1Nc1nc(Nc2cccc(F)c2C(N)=O)c2cc[nH]c2n1` [Example 207, 2-fluoro-6-{[2-({2-(methyloxy)-4-[4-(methylsulfonyl)hexahydro-1H-1,4-diazepin-1-yl]phenyl}amino)-1H-pyrrolo[2,3-d]pyrimidin-4-yl]amino}benzamide], for which the IC50 at ALK was 1.26 to 3.98 nM; with NCI-H929 it was 250 to 1000 nM; in the assay with Colo205 it was 250 to 1000 nM; in assay [1] it was > 500 nM.
In the case of `COc1cc(N2CCCN(C(C)C)CC2)ccc1Nc1nc(Nc2cccc(F)c2C(N)=O)c2cc[nH]c2n1` [Example 208, 2-fluoro-6-[(2-{[4-[4-(1-methylethyl)hexahydro-1H-1,4-diazepin-1-yl]-2-(methyloxy)phenyl]amino}-1H-pyrrolo[2,3-d]pyrimidin-4-yl)amino]benzamide], the IC50 against ALK is 0.251 to 1 nM; with NCI-H929 it was < 250 nM; in the assay on Colo205 it was 250 to 1000 nM; in assay [1] it was 100 to 500 nM.
The like results for `COc1cc2c(cc1Nc1nc(Nc3cccc(F)c3C(N)=O)c3cc[nH]c3n1)N(C(=O)CN(C)C)CCC2` [Example 210, 2-[(2-{[1-(N,N-dimethylglycyl)-6-(methyloxy)-1,2,3,4-tetrahydro-7-quinolinyl]amino}-1H-pyrrolo[2,3-d]pyrimidin-4-yl)amino]-6-fluorobenzamide] were, in that order, 0.251 to 1 nM, < 250 nM, < 250 nM and < 100 nM.
The like results for `COc1cc2c(cc1Nc1nc(Nc3cccc(F)c3C(N)=O)c3cc[nH]c3n1)NCCC2` [Example 211, 2-fluoro-6-[(2-{[6-(methyloxy)-1,2,3,4-tetrahydro-7-quinolinyl]amino}-1H-pyrrolo[2,3-d]pyrimidin-4-yl)amino]benzamide] were, in that order, 5.01 to 200 nM, > 1000 nM, > 1000 nM and > 500 nM.
`CNC(=O)c1c(F)cccc1Nc1nc(Nc2cc3c(cc2OC)CCCN3C(=O)CCN(C)C)nc2[nH]ccc12` [Example 213, 2-[(2-{[1-(N,N-dimethyl-β-alanyl)-6-(methyloxy)-1,2,3,4-tetrahydro-7-quinolinyl]amino}-1H-pyrrolo[2,3-d]pyrimidin-4-yl)amino]-6-fluoro-N-methylbenzamide]: the IC50 against ALK is 5.01 to 200 nM; in the assay on NCI-H929 it was 250 to 1000 nM; in the assay with Colo205, > 1000 nM; in assay [1] it was > 500 nM.
For `COc1cc2c(cc1Nc1nc(Nc3cccc(F)c3C(N)=O)c3cc[nH]c3n1)N(C(=O)CCN(C)C)CCC2` [Example 214, 2-[(2-{[1-(N,N-dimethyl-β-alanyl)-6-(methyloxy)-1,2,3,4-tetrahydro-7-quinolinyl]amino}-1H-pyrrolo[2,3-d]pyrimidin-4-yl)amino]-6-fluorobenzamide], in that order: 5.01 to 200 nM, < 250 nM, 250 to 1000 nM and 100 to 500 nM.
The like results for `COc1cc2c(cc1Nc1nc(Nc3cccc(F)c3C(N)=O)c3cc[nH]c3n1)N(C(=O)CN1CCCCC1)CCC2` [Example 218, 2-fluoro-6-[(2-{[6-(methyloxy)-1-(1-piperidinylacetyl)-1,2,3,4-tetrahydro-7-quinolinyl]amino}-1H-pyrrolo[2,3-d]pyrimidin-4-yl)amino]benzamide] were, in that order, 0.251 to 1 nM, < 250 nM, < 250 nM and < 100 nM.
Regarding `COc1cc2c(cc1Nc1nc(Nc3cc(F)cc(F)c3C(N)=O)c3cc[nH]c3n1)N(C(=O)CN1CCCC1)CCC2` [Example 219, 2,4-difluoro-6-[(2-{[6-(methyloxy)-1-(1-pyrrolidinylacetyl)-1,2,3,4-tetrahydro-7-quinolinyl]amino}-1H-pyrrolo[2,3-d]pyrimidin-4-yl)amino]benzamide], the IC50 against ALK is 0.251 to 1 nM; in the assay with NCI-H929, < 250 nM; with Colo205, < 250 nM; in assay [1], < 100 nM.
Take `COc1cc2c(cc1Nc1nc(Nc3cc(F)cc(F)c3C(N)=O)c3cc[nH]c3n1)NCCC2` [Example 220, 2,4-difluoro-6-[(2-{[6-(methyloxy)-1,2,3,4-tetrahydro-7-quinolinyl]amino}-1H-pyrrolo[2,3-d]pyrimidin-4-yl)amino]benzamide]: the IC50 is 5.01 to 200 nM at ALK, > 1000 nM in the assay with NCI-H929, > 1000 nM in the assay with Colo205 and 100 to 500 nM in assay [1].
Take `CNC(=O)c1c(F)cc(F)cc1Nc1nc(Nc2cc3c(cc2OC)CCCN3C(=O)CN2CCCC2)nc2[nH]ccc12` [Example 221, 2,4-difluoro-N-methyl-6-[(2-{[6-(methyloxy)-1-(1-pyrrolidinylacetyl)-1,2,3,4-tetrahydro-7-quinolinyl]amino}-1H-pyrrolo[2,3-d]pyrimidin-4-yl)amino]benzamide]: the concentration for half-maximal inhibition (IC50) against ALK was 1.26 to 3.98 nM; in the assay on NCI-H929, < 250 nM; with Colo205, 250 to 1000 nM; in assay [1], < 100 nM.

For the origin of these results see patent publication US7981903B2, “2-[2-{phenylamino}-1H-pyrrolo[2,3-D]pyrimidin-4-yl)amino] benzamide derivatives as IGF-1R inhibitors for the treatment of cancer” (GlaxoSmithKline LLC, priority 2007, dated 2011).
